Laboratory results from US8916575B2, “Quinazoline derivatives for the treatment of viral infections and further diseases” (Janssen R&D Ireland, priority 2011, dated 2014).
Marks after values point to notes of the source that are not given here.

Legend:
[1] = target: T1, human TLR8 (Homo sapiens, UniProt Q9NR97); assay: TLR8 wild type NFκB-luc cellular reporter assay; assay type: cell-based; design: unit not given here; details: HEK293 NFκB-luc reporter, 6 hours incubation; for TLR8-wt (LEC): second part of table
T1 construct: expressed in transfected cells; host or cells: HEK293
T1 sequence (Q9NR97 27-1041): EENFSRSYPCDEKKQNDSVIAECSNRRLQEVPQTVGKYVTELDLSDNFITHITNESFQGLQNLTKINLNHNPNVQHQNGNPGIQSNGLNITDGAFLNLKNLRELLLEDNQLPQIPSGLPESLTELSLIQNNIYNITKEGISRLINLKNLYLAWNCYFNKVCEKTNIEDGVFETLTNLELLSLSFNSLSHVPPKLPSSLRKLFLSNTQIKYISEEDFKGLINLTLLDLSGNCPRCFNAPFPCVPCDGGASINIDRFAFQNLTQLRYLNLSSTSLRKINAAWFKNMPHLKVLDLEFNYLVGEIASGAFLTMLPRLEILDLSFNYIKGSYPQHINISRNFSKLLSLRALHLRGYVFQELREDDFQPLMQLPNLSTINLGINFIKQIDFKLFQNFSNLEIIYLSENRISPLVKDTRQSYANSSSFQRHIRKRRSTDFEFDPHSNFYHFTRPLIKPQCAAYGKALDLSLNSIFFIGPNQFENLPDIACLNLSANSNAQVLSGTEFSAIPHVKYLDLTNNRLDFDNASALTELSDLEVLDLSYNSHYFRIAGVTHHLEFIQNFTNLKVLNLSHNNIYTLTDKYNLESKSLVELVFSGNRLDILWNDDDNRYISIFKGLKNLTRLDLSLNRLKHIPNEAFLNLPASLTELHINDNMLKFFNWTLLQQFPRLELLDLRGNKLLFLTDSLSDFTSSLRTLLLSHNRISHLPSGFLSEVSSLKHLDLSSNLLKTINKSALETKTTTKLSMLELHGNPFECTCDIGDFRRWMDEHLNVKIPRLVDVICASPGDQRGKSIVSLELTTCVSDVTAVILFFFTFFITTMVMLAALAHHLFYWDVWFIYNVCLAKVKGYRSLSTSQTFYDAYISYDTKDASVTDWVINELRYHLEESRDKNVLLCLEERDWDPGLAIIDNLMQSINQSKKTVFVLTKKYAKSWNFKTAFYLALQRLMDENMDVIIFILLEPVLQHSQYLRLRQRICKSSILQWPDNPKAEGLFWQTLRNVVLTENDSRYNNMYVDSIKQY
Protocol: (§1) The ability of compounds to activate human TLR7 and/or TLR8 was assessed in a cellular reporter assay using HEK293 cells transiently transfected with a TLR7 or TLR8 expression vector and NFκB-luc reporter construct. In one instance the TLR expression construct expresses the respective wild type sequence or a mutant sequence comprising a deletion in the second leucine-rich repeat of the TLR.
(§2) Briefly, HEK293 cells were grown in culture medium (DMEM supplemented with 10% FCS and 2 mM Glutamine). For transfection of cells in 10 cm dishes, cells were detached with Trypsin-EDTA, transfected with a mix of CMV-TLR7 or TLR8 plasmid (750 ng), NFκB-luc plasmid (375 ng) and a transfection reagent and incubated 24 hours at 37° C. in a humidified 5% CO2 atmosphere. Transfected cells were then detached with Trypsin-EDTA, washed in PBS and resuspended in medium to a density of 1.67×10^5 cells/mL. Thirty microliters of cells were then dispensed into each well in 384-well plates, where 10 μL of compound in 4% DMSO was already present. Following 6 hours incubation at 37° C., 5% CO2, the luciferase activity was determined by adding 15 μl of Steady Lite Plus substrate (Perkin Elmer) to each well and readout performed on a ViewLux ultraHTS microplate imager (Perkin Elmer). Dose response curves were generated from measurements performed in quadruplicates. Lowest effective concentrations (LEC) values, defined as the concentration that induces an effect which is at least two fold above the standard deviation of the assay, were determined for each compound.

[2] = target: T2, human TLR7 (Homo sapiens, UniProt Q9NYK1); assay: TLR7 wild type NFκB-luc cellular reporter assay; assay type: cell-based; design: unit not given here; details: for TLR7-wt (LEC): second part of table
T2 construct: expressed in transfected cells; host or cells: HEK293
T2 sequence (Q9NYK1 27-1049): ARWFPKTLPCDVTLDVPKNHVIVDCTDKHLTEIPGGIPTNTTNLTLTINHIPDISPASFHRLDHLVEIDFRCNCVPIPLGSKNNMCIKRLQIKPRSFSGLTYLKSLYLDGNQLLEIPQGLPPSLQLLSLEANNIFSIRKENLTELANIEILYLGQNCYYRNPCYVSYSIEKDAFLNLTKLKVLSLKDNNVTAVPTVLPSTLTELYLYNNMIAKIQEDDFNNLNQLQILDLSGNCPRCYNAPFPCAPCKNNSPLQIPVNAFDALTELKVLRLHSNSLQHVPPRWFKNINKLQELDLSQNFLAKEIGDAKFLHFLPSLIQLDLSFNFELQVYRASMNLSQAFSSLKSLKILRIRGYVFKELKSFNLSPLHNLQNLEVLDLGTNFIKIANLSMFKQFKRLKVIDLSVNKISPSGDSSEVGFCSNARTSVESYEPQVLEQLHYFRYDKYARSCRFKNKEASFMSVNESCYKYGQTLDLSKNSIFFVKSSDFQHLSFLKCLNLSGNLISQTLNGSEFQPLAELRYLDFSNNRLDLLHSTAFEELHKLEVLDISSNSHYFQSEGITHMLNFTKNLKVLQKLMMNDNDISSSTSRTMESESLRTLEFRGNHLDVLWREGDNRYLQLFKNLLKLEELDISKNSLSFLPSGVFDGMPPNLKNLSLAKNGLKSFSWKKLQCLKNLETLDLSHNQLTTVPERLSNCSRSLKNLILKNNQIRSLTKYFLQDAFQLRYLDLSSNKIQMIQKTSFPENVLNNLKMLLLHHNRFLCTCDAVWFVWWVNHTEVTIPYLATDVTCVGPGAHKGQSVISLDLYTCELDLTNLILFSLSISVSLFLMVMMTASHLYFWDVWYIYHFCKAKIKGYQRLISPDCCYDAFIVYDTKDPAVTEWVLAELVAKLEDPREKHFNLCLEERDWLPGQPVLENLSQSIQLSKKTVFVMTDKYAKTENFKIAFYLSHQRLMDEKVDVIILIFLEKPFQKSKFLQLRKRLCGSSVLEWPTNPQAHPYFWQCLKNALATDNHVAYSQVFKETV
Protocol: as §1
as §2, with “Following 6 hours incubation at 37° C., 5% CO2, the luciferase activity was determined by adding 15 μl of Steady Lite Plus substrate (Perkin Elmer) to each well and readout performed on a ViewLux ultraHTS microplate imager (Perkin Elmer).” left out

[3] = HEK293 NFκB-luc reporter, 6 hours incubation

SMILES	TLR8-wt (LEC) [1]	TLR7-wt (LEC) [2, 3]	TLR8-wt_LEC [1]	TLR7-wt_LEC ([2]; HEK293 NFκB-luc reporter, 6 hours incubation, lowest effective concentration)	TLR7-wt_LEC ([2]; Assay run at 48 hours)
CCC[C@@H](CCO)Nc1nc(N)nc2cc(F)ccc12 [Compound 64]	0.03	0.11	–	–	–
CCC[C@@H](CO)Nc1nc(N)nc2cccc(-c3ccccc3)c12 [Compound 10]	>25	6.08	–	–	–
CCCCNc1nc(N)nc2cc(OC)ccc12 [Compound 39]	0.31	0.94	–	–	–
CCCCNc1nc(N)nc2cc(OC)c(OC)cc12 [Compound 1]	–	–	1.1	5.0	–
CCCCNc1nc(N)nc2cc(F)c(F)cc12 [Compound 42]	0.14	1.81	–	–	–
CCC[C@@H](CO)Nc1nc(N)nc2c(C)cccc12 [Compound 43]	0.12	4.54	–	–	–
CCCCNc1nc(N)nc2cccc(Cl)c12 [Compound 41]	0.13	0.99	–	–	–
CCCC[C@@H](CO)Nc1nc(N)nc2cccc(F)c12 [Compound 62]	0.01	0.75	–	–	–
CCCCNc1nc(N)nc2cc(CO)ccc12 [Compound 18]	0.13	0.13	–	–	–
CC[C@H](C)[C@@H](CO)Nc1nc(N)nc2ccc(F)cc12 [Compound 68]	0.33	4.57	–	–	–
CCCC[C@@H](CO)Nc1nc(N)nc2ccc(F)cc12 [Compound 61]	0.05	0.57	–	–	–
CCC[C@@H](CCO)Nc1nc(N)nc2cc(C)ccc12 [Compound 53]	0.05	0.06	–	–	–
CCC[C@@H](CO)Nc1nc(N)nc2ccc(F)cc12 [Compound 49]	0.03	2.09	–	–	–
C#CCOc1cccc2nc(N)nc(NCCCC)c12 [Compound 30]	0.10	0.05	–	–	–
CCC[C@@H](CCO)Nc1nc(N)nc2ccc(F)cc12 [Compound 65]	0.44	0.94	–	–	–
CCCC[C@@H](CCO)Nc1nc(N)nc2cc(OC)c(OC)cc12 [Compound 3]	–	–	5.5	–	4.0 *
CCC[C@@H](CCO)Nc1nc(N)nc2c(F)cccc12 [Compound 63]	0.15	0.29	–	–	–
CCCCCNc1nc(N)nc2ccc(Br)cc12 [Compound 13]	0.30	0.76	–	–	–
CCCCNc1nc(N)nc2ccc(F)cc12 [Compound 38]	0.10	0.29	–	–	–
CC[C@H](C)[C@@H](CO)Nc1nc(N)nc2c(F)cccc12 [Compound 67]	0.11	2.50	–	–	–
CCC[C@@H](CCO)Nc1nc(N)nc2ccc(Oc3ccc(C(F)(F)F)cc3Cl)cc12 [Compound 27]	>25	12.95	–	–	–
CCC[C@@H](CCO)Nc1nc(N)nc2ccc(Oc3ccc(C(F)(F)F)cc3)cc12 [Compound 29]	>25	11.13	–	–	–
CCC[C@@H](CCO)Nc1nc(N)nc2cccc(F)c12 [Compound 66]	0.02	0.22	–	–	–
CCCCNc1nc(N)nc2ccc(Oc3ccc(C(F)(F)F)cc3Cl)cc12 [Compound 35]	>25	4.15	–	–	–
CCC[C@@H](CO)Nc1nc(N)nc2cc(F)ccc12 [Compound 48]	0.01	0.54	–	–	–

The next lines start with results.

TLR8-wt (LEC) [1]	TLR7-wt (LEC) [2, 3]	SMILES	TLR8-wt_LEC [1]	TLR7-wt_LEC ([2]; HEK293 NFκB-luc reporter, 6 hours incubation, lowest effective concentration)	TLR7-wt_LEC ([2]; Assay run at 48 hours)
0.62	3.48	CCCC[C@@H](CO)Nc1nc(N)nc2ccc(OC)cc12 [Compound 77]	–	–	–
2.22	1.84	CCCCNc1nc(N)nc2cc(OC)c(OCc3ccccc3)cc12 [Compound 89]	–	–	–
0.10	0.51	CCCCNc1nc(N)nc2ccc(Br)cc12 [Compound 85]	–	–	–
0.02	2.59	CCC[C@@H](CO)Nc1nc(N)nc2cc(F)c(F)cc12 [Compound 72]	–	–	–
0.25	0.44	CCCC[C@@H](CCO)Nc1nc(N)nc2ccc(C)cc12 [Compound 74]	–	–	–
2.81	1.85	CCCC[C@@H](CCO)Nc1nc(N)nc2ccc(OC)cc12 [Compound 88]	–	–	–
0.42	1.59	CCCC[C@@H](CCO)Nc1nc(N)nc2ccc(F)cc12 [Compound 83]	–	–	–
0.16	0.16	CCCC[C@@H](CCO)Nc1nc(N)nc2cc(OC)ccc12 [Compound 87]	–	–	–
0.38	7.48	CCC[C@@H](CO)Nc1nc(N)nc2c(Cl)cccc12 [Compound 69]	–	–	–
0.01	0.41	CCC[C@@H](CO)Nc1nc(N)nc2cc(Cl)ccc12 [Compound 70]	–	–	–
0.10	0.44	CCCC[C@@H](CCO)Nc1nc(N)nc2cccc(F)c12 [Compound 84]	–	–	–
0.06	0.14	CCCC[C@@H](CCO)Nc1nc(N)nc2cccc(C)c12 [Compound 75]	–	–	–
4.10	>25	CC[C@H](C)[C@@H](CO)Nc1nc(N)nc2ccc(OC)cc12 [Compound 80]	–	–	–
